The text below walks through data of a melting point compilation (Tetko et al.; mined from patent text by program, amines drawn as free bases though some values may be those of a salt).

Usually melting point stands for the temperature of the solid-liquid transition. In the case of `COc1cccc(N2C(CO)=Cc3ccsc3S2(=O)=O)c1`, the melting point fell in the range of 141 to 143 °C.
Molecule `CSc1ccccc1C=NO` came in with a melting point of 88 to 89 °C.
`CSSc1ccc([N+](=O)[O-])cc1C(Cl)(Cl)Cl`: the melting point turned out to be 76 °C.
For `O=C(O)COc1cccc(CN2C(=O)C3(COc4cc5c(cc43)CCO5)c3ccccc32)c1` (configuration not stated) the value was 95 to 96 °C; for `O=C(Nc1ccc2ccc(Cl)nc2n1)c1cnccn1`, 308 °C.
In turn, `COc1ccc(Cn2c(-c3ccco3)nc3c(-c4ccco4)ncnc32)cc1` had a melting point of 134 to 136 °C.
On to `O=C(O)c1cccc(CC(Cn2ccnc2)c2ccc(F)cc2)c1` (configuration not stated), for which the melting point lay within 125 to 130 °C.
With `CC(C)(C)OC(=O)N1C[C@@H]2[C@H](F)CCC(c3ccccc3)(c3ccccc3)[C@@H]2C1`, the melting point was 200 °C.
`Fc1ccc(Nc2ncnc3cnc(NCC45CCN(CC4)CC5)nc23)cc1Cl`: the melting point was 221 to 223 °C.
Molecule `CNc1nc2ccc(CCc3ccccn3)cc2s1` registered a melting point of 118 to 120 °C.
In turn, `COC1=CC(=O)C2=C(C1=O)C1CCC2C1` (configuration not stated) returned a melting point of 106 to 108 °C.
Regarding `Oc1ccc(Br)cc1-c1nc2ccccc2s1`, the melting point lay in the range of 164 to 165 °C.
As for `CN(C)C=CC=C(C#N)C(=O)N(C)C`, the melting point was 149 to 150 °C.
As to `NC(=O)c1c(Cl)c(-c2ccccc2)n2c1CN(S(=O)(=O)c1cccs1)CC2`, the melting point was 240 to 242 °C.
Regarding `CCCN1CCN(c2cc3ccccc3c(=O)[nH]2)CC1`, the melting point is 208 to 209 °C.
Turning to `CNC(=NC#N)NCCCCSc1nccc(NC(N)=NCC(F)(F)F)n1`, the melting point was in the range of 179 to 180 °C.
For `C#Cc1ccc(CCNC(=O)c2cc(Cl)ccc2OC)cc1S(=O)(=O)NC(=S)NC` the value was 224 to 225 °C; for `CCCOc1ccccc1-c1nc2nc(NC3CC3)ncc2c(=O)[nH]1`, 208 °C; for `CON1CCC2(CC1)C(O)=C(c1c(C)cc(C)cc1C)C(=O)N2CC1CC1`, 223 to 225 °C.
Molecule `CCNc1cc(O)c(C(C)=O)cc1C(C)=O` had a melting point of 103 to 104 °C.
For `CCN1c2ncc(CCc3ccc4ccccc4c3)cc2C(=O)N(C)c2ccc(F)nc21` the value was 112 to 114 °C.
For `O=C1C(c2ccccc2)=C(c2ccccc2)C(=O)N1CCc1ccccc1` the value was 164 to 165 °C.
`CC(=O)NN1CCN(C(=O)Cn2c(=O)sc3ccc(Cl)cc32)CC1`: the melting point was 284 to 285 °C.
`COC(=O)Cc1ccc(S(=O)(=O)c2ccc(Cl)cc2)cc1` yielded a melting point of 78 to 80 °C.
Take `CC(=O)C(C(=O)Nc1ccccc1)C(C)C` (configuration not stated): the melting point lay within 135 to 137 °C.
In turn, `O=C(/C=C/c1ccccc1)N1CCCC1` displayed a melting point of 100 °C.
With `CCc1cn2ccccc2c1S(=O)(=O)c1ccc(OCCCCBr)cc1`, the melting point was 111 °C.
As for `O=[N+]([O-])c1ccc(S(=O)(=O)c2ncc(Cl)cn2)s1`, the melting point lay in the range of 144 to 146 °C.
Consider `C=CCOC(=O)N=C(OCC)N1Cc2ccccc2-c2ccccc2C1`, for which the melting point was 76 to 77.5 °C.
Under `Cc1oc(-c2ccc(F)cc2)cc1C(=O)O` stands 217 to 218 °C; under `CCOC(=O)c1cc(=O)c2c(ccc3c4ccccc4c(=O)oc32)o1`, 240 to 242 °C.
In turn, `Cc1cnc2ccc(-c3cccnc3)nn12` returned a melting point of 173 to 175 °C.
Under `CCCCCCNc1ccc([N+](=O)[O-])cc1C(=O)O` stands 161 to 163 °C; under `CCCn1c(=Nc2ccc(C(=O)OCC)cc2)sc2ncccc2c1=O`, 115 to 117 °C.
`Cc1cc(C)nc(NC(=O)c2ccn3c2CSC3c2cccnc2)c1` (configuration not stated) yielded a melting point of 171 °C.
The molecule `O=[N+]([O-])c1[nH]c(-c2c(Cl)cc(C(F)(F)F)cc2Cl)nc1Br` registered a melting point of 292 to 293 °C.
For `O=C(NN=Cc1ccc(C(F)(F)F)cc1)c1ccc(O)cc1` the value was 260 °C.
